Data published in paper PMC11111404, “Discovery of potent small-molecule inhibitors of lipoprotein(a) formation” (Nature, 2024).
“And” between values parts separate entries of the source, which are not always exact repeats. Equal values may be shown once. Read-outs that look alike come from different tables or passages of the source. Marks after values point to notes of the source that are not given here.

Tests used:
Lp(a) = Lp(a) levels in cynomolgus monkeys; format: in vivo, cynomolgus monkey (Macaca fascicularis); parameters: key to Mean_pCFB_vs_Veh / Mean_pCFB_vs_Veh (Lp(a)): % change from pre-dose, treated group compared with vehicle; key to Mean_pCFB / Mean_pCFB (Lp(a)): % change in Lp(a) from before dosing; Lp(a): unit not given here; conditions: for Mean_pCFB / Mean_pCFB_vs_Veh: Lp(a); for Mean_pCFB / Mean_pCFB_vs_Veh / Lp(a) / pCFB (Lp(a) pct change from baseline): female cynomolgus monkeys
Protocol: Female or male Chinese Macaca fascicularis cynomolgus monkeys (as described in the figure legends) of unspecified ages with body weight ranging from 2.0 kg to 5.0 kg were housed in cages with a standard light cycle (12-h light, 12-h dark) at room temperature (20–26 °C); the relative humidity ranged from 30% to 70%. Monkeys were given fruits, vegetables or dietary enrichment as a form of environmental enrichment, and various cage enrichment devices. Purina Lab diet 5048C was provided BID and individual monkeys were identified by cage card. The monkeys were randomized to treatment groups by body weight and baseline plasma Lp(a) concentration, as determined by a commercially available Randox assay (Randox LP2757), using a BRAT for the study. In an example cynomolgus monkey study in which 39 monkeys were prescreened for baseline Lp(a) levels, the average Lp(a) level was 350 ± 57 µg ml^−1 (range 53–1,667 µg ml^−1). Monkeys were dosed orally with vehicle (purified water) or compounds QD or BID for 14 days, at dose levels and frequencies as previously described for each compound. Plasma samples were collected on days before dosing to establish baseline Lp(a) and after the morning dose during the study. Lp(a) levels were measured by an investigator who was blinded to group allocation using the Randox assay, and were quantified relative to the calibrator series (Randox LP3404). Data were analysed in GraphPad Prism v.9.5.1. The Lp(a) percentage change from before dosing in non-human primates was analysed by repeated measures ANOVA in SAS v.9.4 (SAS). At each time point, the Lp(a) percentage change for each treated group was compared with vehicle by the Bonferroni method.

plasmin activity = target: T1, plasmin activity (Rattus norvegicus, UniProt Q01177); experiment: Rat plasma plasmin (plasminogen) activity ex vivo after oral dosing; format: in vivo; conditions: rats treated orally at pharmacological doses
T1 construct: Plasma samples were collected via the abdominal aorta; from tissue; host or cells: Citrated plasma of orally dosed male Sprague Dawley rats
Protocol: Male Sprague Dawley rats (Charles River, average body weight 310 g, aged eight to nine weeks old) were housed in cages with a standard light cycle (12-h light, 12-h dark), at room temperature (22 ± 4 °C), with a relative humidity of 30–70%. Rats were identified by numbers on the cage cards. After arrival, rats were fed on a normal diet (Harlan Teklad diet 2014) and randomized to treatment groups (n = 5 per group) by baseline plasma plasminogen concentration and activity using a BRAT. LSN3441732 and LY3473329 were administered QD orally at three dose levels (3.7, 12.3 and 37 mg kg^−1; 3.2, 10.5 and 31.6 mg kg^−1 per dose, respectively) or vehicle (10 ml kg^−1, 1% HEC, 0.25% Tween-80, Antifoam) for four days. Terminal blood was drawn under general anaesthesia 24 h after the day-4 oral dose. Plasma samples were collected via the abdominal aorta into a premeasured anticoagulant BD Vacutainer used for blood collection (2.7 ml, buffered sodium citrate). The liver was flash frozen in liquid nitrogen. To measure plasminogen activity, 100 µl plasma per well was added to a 96-well plate (Corning) and the following were added to the indicated concentrations: 7.5 mM CaCl2 and 117 mM NaCl. Wells were mixed and warmed to 37 °C. Urokinase (Millipore) was added at 125 U per well and the plate was incubated at 37 °C for 4 min. The plasminogen substrate Chromogenix S-2251 (DiaPharma) was added to a concentration of 3.3 mM. The mixture was added and the plate was sealed and placed in a prewarmed plate reader, shaken, and the absorbance read every 30 s for 2 h. The maximum slope for each curve was determined and the percentage inhibition was calculated relative to untreated controls. Plasminogen protein was measured using ELISA kits for rat (Abcam ab157740) according to the manufacturer’s instructions. Plasminogen activity (percentage) and mass (µg ml^−1) in rat were analysed by ANOVA in JMP 16.1.0. The percentage reduction of plasminogen activity and mass for each treated group was compared with vehicle by Dunnett’s method.

[1] = Pharmacokinetics in monkey plasma after oral dosing; format: in vivo; conditions: cynomolgus; for Cmax / Tmax: day 14; for AUC(0-t): day 14, read-out: AUC(0–12 h)
[2] = oral BID, day 1, individual animal
[3] = oral BID, day 3, individual animal
[4] = oral BID, day 5, individual animal
[5] = oral BID, day 9, individual animal
[6] = oral BID, day 14, individual animal
[7] = oral QD, day 1, individual animal
[8] = oral QD, day 3, individual animal
[9] = oral QD, day 5, individual animal
[10] = oral QD, day 9, individual animal
[11] = oral QD, day 14, individual animal

T1 sequence (Q01177 20-812 limits assumed): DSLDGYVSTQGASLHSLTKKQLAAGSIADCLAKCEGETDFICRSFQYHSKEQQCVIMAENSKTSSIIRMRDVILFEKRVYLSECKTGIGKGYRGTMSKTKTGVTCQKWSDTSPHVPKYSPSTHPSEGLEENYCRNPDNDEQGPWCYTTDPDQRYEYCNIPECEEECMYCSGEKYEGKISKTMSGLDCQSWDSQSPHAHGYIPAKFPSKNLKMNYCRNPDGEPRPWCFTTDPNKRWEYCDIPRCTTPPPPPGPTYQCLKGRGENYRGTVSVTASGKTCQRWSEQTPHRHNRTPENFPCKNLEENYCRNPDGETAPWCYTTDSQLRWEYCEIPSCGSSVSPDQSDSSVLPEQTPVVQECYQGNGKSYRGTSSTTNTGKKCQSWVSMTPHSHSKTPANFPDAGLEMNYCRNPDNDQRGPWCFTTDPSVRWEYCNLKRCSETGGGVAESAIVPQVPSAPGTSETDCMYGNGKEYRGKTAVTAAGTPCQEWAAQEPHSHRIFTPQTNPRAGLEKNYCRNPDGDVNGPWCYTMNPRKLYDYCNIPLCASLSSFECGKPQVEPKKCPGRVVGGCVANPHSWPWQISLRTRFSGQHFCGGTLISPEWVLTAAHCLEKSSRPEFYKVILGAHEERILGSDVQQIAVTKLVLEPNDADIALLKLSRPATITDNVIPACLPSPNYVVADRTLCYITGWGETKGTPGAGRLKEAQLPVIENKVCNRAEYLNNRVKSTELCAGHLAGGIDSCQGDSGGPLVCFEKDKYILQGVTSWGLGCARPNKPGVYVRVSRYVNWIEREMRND

SMILES: Cl.O=C(O)[C@@H](Cc1ccccc1)[C@H]1CCNC1 [LSN3353871]
- Mean_pCFB (Lp(a); BID, day 1): -17.16
- Mean_pCFB_vs_Veh (Lp(a); BID, day 1): 1.08
- Mean_pCFB (Lp(a); BID, day 3): -35.64
- Mean_pCFB_vs_Veh (Lp(a); BID, day 3): -13.27
- Mean_pCFB (Lp(a); BID, day 5): -39.65
- Mean_pCFB_vs_Veh (Lp(a); BID, day 5): -25.29
- Mean_pCFB (Lp(a); BID, day 9): -24.57
- Mean_pCFB_vs_Veh (Lp(a); BID, day 9): -29.9
- Mean_pCFB (Lp(a); BID, day 14): -34.78
- Mean_pCFB_vs_Veh (Lp(a); BID, day 14): -34.93
- Mean_pCFB (Lp(a); QD, day 1): -15.58
- Mean_pCFB_vs_Veh (Lp(a); QD, day 1): 2.65
- Mean_pCFB (Lp(a); QD, day 3): -24.41
- Mean_pCFB_vs_Veh (Lp(a); QD, day 3): -2.03
- Mean_pCFB (Lp(a); QD, day 5): -27.62
- Mean_pCFB_vs_Veh (Lp(a); QD, day 5): -13.26
- Mean_pCFB (Lp(a); QD, day 9): -15.91
- Mean_pCFB_vs_Veh (Lp(a); QD, day 9): -21.23
- Mean_pCFB (Lp(a); QD, day 14): -9.51
- Mean_pCFB_vs_Veh (Lp(a); QD, day 14): -9.65
- decrease in Lp(a) levels (Lp(a); cynomolgus monkeys, 20 mg kg^−1 BID for two weeks): up to 40%
- %Lp(a) max decrease (dose, mg/kg) (Lp(a); cynomolgus monkeys, 20 mg/kg BID, 14 days dosing): 40 (20)^b %
- Lp(a) (Lp(a); BID group, day -1 (before dosing), individual animal): 62.7685 and 48.163 and 60.7172 and 13.635 and 18.9902 and 51.942 and 61.5505 and 31.6327
- Lp(a) (Lp(a); BID group, day -14 (before dosing), individual animal): 63.283 and 50.674 and 55.2892 and 13.5483 and 15.2575 and 51.2555 and 54.086 and 23.9562
- Lp(a) (Lp(a); QD group, day -1 (before dosing), individual animal): 64.272 and 49.5175 and 60.6415 and 25.2005
- Lp(a) (Lp(a); QD group, day -14 (before dosing), individual animal): 61.406 and 37.9278 and 38.7218 and 35.5823
- Lp(a) (Lp(a); [2]): 52.535 and 44.0168 and 46.6457 and 12.9142 and 11.7935 and 42.9437 and 23.7942 and 44.7918
- pCFB (Lp(a) pct change from baseline) (Lp(a); [2]): -10.9306 and -19.5807 and -4.985 and -31.1282 and -18.9955 and -14.3923 and -20.5861 and -16.6452
- Lp(a) (Lp(a); [3]): 45.0043 and 39.4997 and 31.6748 and 8.965 and 6.9825 and 34.2685 and 20.4107 and 36.1685
- pCFB (Lp(a) pct change from baseline) (Lp(a); [3]): -20.0709 and -45.3913 and -34.0392 and -59.2235 and -35.3595 and -26.5656 and -35.8749 and -28.5937
- Lp(a) (Lp(a); [4]): 38.5745 and 31.448 and 28.6503 and 10.7198 and 9.08 and 32.1393 and 18.0332
- pCFB (Lp(a) pct change from baseline) (Lp(a); [4]): -38.7957 and -36.3639 and -50.6056 and -21.1294 and -46.9735 and -39.3758 and -35.1194 and -48.839
- Lp(a) (Lp(a); [5]): 44.675 and 39.068 and 37.0712 and 13.4855 and 14.776 and 41.9348 and 17.9605
- pCFB (Lp(a) pct change from baseline) (Lp(a); [5]): -29.1163 and -20.9446 and -36.0875 and -0.7811 and -13.7109 and -20.8987 and -35.3809 and -39.6451
- Lp(a) (Lp(a); [6]): 55.7647 and 33.5363 and 40.4025 and 9.657 and 7.2775 and 34.1767 and 13.5137
- pCFB (Lp(a) pct change from baseline) (Lp(a); [6]): -11.5208 and -32.1383 and -30.3443 and -28.9479 and -57.5008 and -35.5326 and -51.38 and -30.8982
- Lp(a) (Lp(a); [7]): 48.1358 and 37.1353 and 55.4155 and 18.3242
- pCFB (Lp(a) pct change from baseline) (Lp(a); [7]): 11.5412 and -39.7058 and -6.086 and -13.177 and -16.5026 and -22.2746 and -23.3982 and -15.0662
- Lp(a) (Lp(a); [8]): 39.5063 and 29.6812 and 40.6228 and 20.1472
- pCFB (Lp(a) pct change from baseline) (Lp(a); [8]): -18.2339 and -33.7073 and 11.9206 and -19.0783 and -28.1629 and -38.7431 and -37.1309 and -32.1149
- Lp(a) (Lp(a); [9]): 37.3218 and 25.577 and 40.148 and 26.2523
- pCFB (Lp(a) pct change from baseline) (Lp(a); [9]): -19.1894 and -13.6191 and -4.001 and -34.7759 and -8.718 and -58.5688 and -40.6072 and -41.5017
- Lp(a) (Lp(a); [10]): 56.5955 and 31.4135 and 43.3325 and 24.1392
- pCFB (Lp(a) pct change from baseline) (Lp(a); [10]): -12.7796 and -20.572 and 2.106 and -9.614 and -0.2146 and -48.0895 and -9.936 and -28.1528
- Lp(a) (Lp(a); [11]): 39.3452 and 48.5785 and 37.4098 and 37.2848
- pCFB (Lp(a) pct change from baseline) (Lp(a); [11]): -24.9526 and -29.9842 and 41.651 and -25.3919 and 24.0547 and -24.319 and -22.6937 and -14.4384
- plasma plasmin activity measured ex vivo (plasmin activity): no inhibitory action
- Cmax ([1]; oral 20 mg/kg): 22.3 µM
- Tmax ([1]; oral 20 mg/kg): 1.5 ± 0.5 h
- AUC(0-t) ([1]; oral 20 mg/kg): 136 µM·h
- Cmax ([1]; oral 40 mg/kg): 29.6 µM
- Tmax ([1]; oral 40 mg/kg): 1.5 ± 0.5 h
- AUC(0-t) ([1]; oral 40 mg/kg): 210 µM·h
